The nature of data set [1]: Panel test of lowering iron taste and/or smell of aqueous bivalent iron ion solution. More on the design: key to Effect on lowering iron taste and/or smell: “Not effective (symbol “−”)” meaning of that the test aqueous solution showed no difference in iron taste and/or smell from that the control aqueous solution; “Slightly effective (symbol “+”)”, the test aqueous solution showes weaker iron taste and/or smell than the control aqueous solution but the deference was not significant; “Effective (symbol “++”)”, the test aqueous solution showed a slight iron taste and/or smell but it was significantly weaker than that of the control aqueous solution; “Strongly effective (symbol “+++”)”, the test aqueous solution showed almost no iron taste and/or smell. Particulars: for Effect on lowering iron taste and/or smell: 5 mg bivalent iron per 100 ml, 12 panels. As to the method:
To confirm the effect of various saccharides on inhibiting taste and/or smell of bivalent iron ion, the following experiment was carried out. An aqueous solution containing bivalent iron ion was prepared by dissolving 0.05556 part by weight of ammonium ferric citrate (iron content of about 18%), and 0.1 part by weight of ascorbic acid in 100 parts by weight of deionized water. Test aqueous solutions containing 5 mg of bivalent iron per 100 ml of water and 0.5, 1.0, 1.5, 2.0 or 5.0% of saccharide selected from sucrose, maltose (hydrous crystalline maltose commercialized by Hayashibara Biochemical Laboratories, Inc., Okayama, Japan, purify 99.0% or more), α,α-trehalose (hydrous crystalline α,α-trehalose commercialized by Hayashibara Biochemical Laboratories, Inc., Okayama, Japan, purity 99.0% or more), α-glucosyl α,α-trehalose (hydrous crystalline α-glucosyl α,α-trehalose prepared in Experiment B-1 of Japanese Patent Publication (Kokai) No. 291,986/1995, purity 99.0% or more), and […] (powdery α-maltosyl α,α-trehalose prepared in Example 5 described following, purity 98.1%) were prepared by admixing the above aqueous solution containing bivalent iron with an equal volume of a pre-prepared aqueous solution containing any one of the above saccharides at a concentration of 1.0, 2.0, 3.0, 4.0 or 10.0%, on a dry solid basis. As a control, an aqueous solution was prepared by admixing the aqueous solution containing bivalent iron ion with an equal volume of warter instead of the aqueous saccharide solution.
The effect on lowering iron taste and/or smell, namely unpleasant taste and/or smell of iron ion existing in a test aqueous solution at a concentration of 5 mg per 100 ml was judged by a panel test using 12 panels. […] In the judgement for each test aqueous solution, ten or more of 12 panels answered the same judgement.

A short description of data set [2]: Inhibiting the production of hydrogen sulfide from L-cysteine due to heat-decomposition. The note with it: 2.5 g L-cysteine hydrochloride and 5 g saccharide in 50 ml; 80° C. for 15 minutes; 100 minus relative value, control defined as 100. The source says: Two and half grams of precisely weighted L-cysteine hydrochloride (special reagent grade) and on a dry solid basis 5 g of a precisely measured saccharide sample; i.e. hydrous crystalline α,α-trehalose (reagent grade, purity 99.0% or more, commercialized by Hayashibara Biochemical Laboratories, Inc., Okayama, Japan), α-maltosyl α,α-trehalose prepared in the following Example 5 (purity 98.1%), or a reagent grade maltotetraose (purity 97.0% or more, commercialized by Hayashibara Biochemical Laboratories, Inc., Okayama, Japan); were placed in a 50-ml volume measuring flask and dissolved in deionized water to give a final volume of 50 ml. As a control, 2.5 g of precisely measured L-cysteine hydrochloride (special reagent grade) was dissolved in deionized water to give a final volume of 50 ml. Five ml of each sample was place into a 20-ml volume vial, sealed with a butyl gum cap, and kept at 80° C. for 15 minutes in an incubator. Hydrogen sulfide contained in 10 ml of the resulting headspace gas was measured by “GASTECH No. 4 LT”, a hydrogen sulfide detector commercialized by GL Science Corporation, under an aspiration time of one minute. The resulting value of the production of hydrogen sulfide of each test sample was compared with the value of control defined as 100 to calculate the relative value of the production of hydrogen sulfide. And then, the relative rate of inhibiting the production of hydrogen sulfide was calculated by 100 minus the relative value.

The nature of data set [3]: Water solubility and hygroscopicity of the agents. Type of data set: physicochemical.

Turning to `OC[C@H]1O[C@H](O[C@H]2[C@H](O)[C@@H](O)C(O)O[C@@H]2CO)[C@H](O)[C@@H](O)[C@@H]1O` (mixture of isomers) [Maltose, maltose], the “Effect on lowering iron taste and/or smell” value in data set [1] (saccharide 0.5%) is on record as “−”; in data set [1] (saccharide 1.0%), “−”; in data set [1] (saccharide 1.5%) it was “−”; in data set [1] (saccharide 2.0%) it was “+”; in data set [1] (saccharide 5.0%) it was “+”. In addition, the “Concentration effective on lowering unpleasant taste and/or smell of aqueous iron ion solution” value in data set [1] (to the total weight of the aqueous solution, dry solid basis) is at least 2%.
With `OC[C@H]1O[C@H](O[C@H]2[C@H](O)[C@@H](O)[C@@H](O[C@H]3[C@H](O)[C@@H](O)[C@@H](O[C@H]4[C@H](O)[C@@H](O)C(O)O[C@@H]4CO)O[C@@H]3CO)O[C@@H]2CO)[C@H](O)[C@@H](O)[C@@H]1O` (some centres unmarked) [Maltotetraose, maltotetraose], the “Relative rate of inhibiting the production of hydrogen sulfide” value in data set [2] was 12.
On to `OC[C@H]1O[C@H](O[C@H]2O[C@H](CO)[C@@H](O[C@H]3O[C@H](CO)[C@@H](O[C@H]4O[C@H](CO)[C@@H](O)[C@H](O)[C@H]4O)[C@H](O)[C@H]3O)[C@H](O)[C@H]2O)[C@H](O)[C@@H](O)[C@@H]1O` [α-Maltosyl α,α-trehalose, α-maltosyl α,α-trehalose], for which the Hygroscopicity result in data set [3] is “low hygroscopicity”. In addition, in data set [3], the Solubility in water entry is recorded as “satisfactory solubility in water”. For the same compound, the “Relative rate of inhibiting the production of hydrogen sulfide” value in data set [2] came to 36. Moreover, the “Effect on lowering iron taste and/or smell” value in data set [1] (saccharide 0.5%) is “−”; in data set [1] (saccharide 1.0%), “+”; in data set [1] (saccharide 1.5%) it was “++”; in data set [1] (saccharide 2.0%), “++”; in data set [1] (saccharide 5.0%), “+++”.
As for `OC[C@H]1O[C@H](O[C@H]2O[C@H](CO)[C@@H](O[C@H]3O[C@H](CO)[C@@H](O)[C@H](O)[C@H]3O)[C@H](O)[C@H]2O)[C@H](O)[C@@H](O)[C@@H]1O` [α-Glucosyl α,α-trehalose, α-glucosyl α,α-trehalose], the “Effect on lowering iron taste and/or smell” value in data set [1] (saccharide 0.5%) is “−”; in data set [1] (saccharide 1.0%), “+”; in data set [1] (saccharide 1.5%), “++”; in data set [1] (saccharide 2.0%), “++”; in data set [1] (saccharide 5.0%), “+++”.

These data come from patent US20060134197A1, “Method of reducing unpleasant taste and/or unpleasant odor” (priority 2002, published 2006).
